Measurements taken from US11643428B2, “Therapeutic drug for neurodegenerative disease and application thereof” (SHANGHAI PHARMACEUTICALS HOLDING CO., LTD., priority 2018, dated 2023).

How the values were obtained:
[1] = tested on: neuroblastoma cells SK-N-SH; assay: Total Aβ in supernatant of SK-N-SH cells by ELISA; assay type: cell-based; settings: 24 hours
Experimental: Culture of neuroblastoma cells SK-N-SH and Aβ detection: SK-N-SH cells were cultured in DMEM, plated to 24 well plates and cultured for 24 hours, then PL201 (0, 30, 100, and 300 μM) was added. After co-incubation for 24 hours, the protein level of total Aβ in supernatant was detected by ELISA.
Culture of neuroblastoma cells SK-N-SH and Aβ detection: SK-N-SH cells were cultured in DMEM, plated to 24 well plates and cultured for 24 hours, then PL202 (0, 30, and 100 μM) was added. After co-incubation for 24 hours, protein level of total Aβ in supernatant was detected by ELISA.
Culture of neuroblastoma cells SK-N-SH and Aβ detection: SK-N-SH cells were cultured in DMEM, plated to 24 well plates and cultured for 24 hours, then PL171 (300 μM) was added. After co-incubation for 24 hours, protein level of total Aβ in supernatant was detected by ELISA.
Culture of neuroblastoma cells SK-N-SH and Aβ detection: SK-N-SH cells were cultured in DMEM, plated to 24 well plates and cultured for 24 hours, then PL172 (300 μM) was added. After co-incubation for 24 hours, protein level of total Aβ in supernatant was detected by ELISA.

[2] = tested on: mouse BV-2 cell line; assay: Expression of inflammatory factors in LPS-treated BV-2 cells by QPCR; assay type: cell-based; settings: PL202 30, 100, 300 μM, LPS 300 ng/ml, 24 hours
Experimental: Neuroinflammation in the brain of AD is one of the causes of cognitive decline. Microglial cells are the key cells that mediate neuroinflammation. In this example, the inventors have explored whether PL201 has the effect of inhibiting neuroinflammation by detecting the expressions of inflammatory factors on mouse BV-2 cell line.
BV-2 cells were cultured in DMEM, plated to 24 well plates and cultured for 24 hours, then PL201 (0, 10, 30, and 100 μM) and LPS (300 ng/ml) were added. After co-incubation for 24 hours, Trizol was used to extract RNA and the expressions of related inflammatory factors were detected by QPCR.
Mouse BV-2 cells were cultured in DMEM, plated to 24 well plates and cultured for 24 hours, then PL202 (0, 30, 100, and 300 μM) and LPS (300 ng/ml) were added. After co-incubation for 24 hours, Trizol was used to extract RNA and the expressions of related inflammatory factors were detected by QPCR.

COc1cc(/C=C/C(=O)NC2OC(C)C(O)C(O)C2O)ccc1O [PL171, (1-amino-β-L-rhamnopyranosyl) ferulamide]
Aβ production (total Aβ in supernatant) ([1]; 300 μM): significantly inhibited

COc1cc(/C=C/C(=O)NC2OC(C)C(O)C(O)C2O)ccc1O [PL172, (1-amino-α-L-rhamnopyranosyl) ferulamide]
Aβ production (total Aβ in supernatant) ([1]; 300 μM): significantly inhibited

COc1cc(/C=C/C(=O)OC2OC(C)C(O)C(O)C2O)ccc1O [PL202, (β-L-rhamnopyranosyl) ferulic acid ester]
expression of inflammatory factor IL-1β [2]: significantly inhibited
expression of inflammatory factor iNOS [2]: significantly inhibited
Aβ production (total Aβ in supernatant) ([1]; 30, 100 μM): significantly inhibited
